Assay results reported in patent US20250230193A1, “CYCLIC COMPOUND HAVING SELECTIVE KRAS INHIBITORY EFFECT ON HRAS AND NRAS” (CHUGAI SEIYAKU KABUSHIKI KAISHA, priority 2022, published 2025).

How the values were obtained:
[1] = molecular target: GDP-bound NRAS wild-type protein (Homo sapiens, UniProt P01111); test: Binding to NRAS by surface plasmon resonance (SPR), Single Cycle Kinetics; conditions: KD ratio NRAS/KRAS, class symbols
[2] = molecular target: GDP-bound HRAS wild-type protein (Homo sapiens, UniProt P01112); test: Binding to HRAS by surface plasmon resonance (SPR), Single Cycle Kinetics; conditions: KD ratio HRAS/KRAS, class symbols
GDP-bound HRAS wild-type protein, sequence (P01112 whole entry): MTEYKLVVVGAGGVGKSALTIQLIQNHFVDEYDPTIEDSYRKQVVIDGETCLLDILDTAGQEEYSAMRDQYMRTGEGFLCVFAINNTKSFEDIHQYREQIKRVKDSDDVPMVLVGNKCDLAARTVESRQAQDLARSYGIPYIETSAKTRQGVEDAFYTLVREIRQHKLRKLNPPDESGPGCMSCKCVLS

GDP-bound NRAS wild-type protein, sequence (P01111 whole entry): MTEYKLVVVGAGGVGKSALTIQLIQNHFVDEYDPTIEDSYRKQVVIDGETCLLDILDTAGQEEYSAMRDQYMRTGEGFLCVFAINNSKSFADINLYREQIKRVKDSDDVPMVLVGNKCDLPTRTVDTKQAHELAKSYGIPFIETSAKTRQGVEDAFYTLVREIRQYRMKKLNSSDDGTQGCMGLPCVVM

CCO[C@@H]1C[C@H]2C(=O)NC3(CCC3)C(=O)N(C)[C@@H](C(CC)CC)C(=O)N(C)[C@H](C(=O)N(C)C)CC(=O)N(C)[C@H]3CCCC/C=C/c4ccc(cc4)C[C@@H](C(=O)N(C)CC(=O)N[C@@H](CCc4ccc(Cl)c(Cl)c4)C(=O)N2C1)N1CC/C=C\C[C@@H](C1=O)N(C)C(=O)CN(C1CC1)C(=O)[C@H]([C@@H](C)CC)NC3=O [PP2605]
NRAS/KRAS (ratio of KD value with respect to GDP-bound NRAS wild-type protein to KD value with respect to KRAS) [1]: AA (a compound having 20 or more is denoted as AA) | HRAS/KRAS (ratio of KD value with respect to GDP-bound HRAS wild-type protein to KD value with respect to KRAS) [2]: A (a compound having 10 or more and less than 20 is denoted as A)

CCO[C@@H]1C[C@H]2C(=O)NC3(CC(C)(C)C3)C(=O)N(C)[C@@H](C(CC)CC)C(=O)N(C)[C@H](C(=O)N3CCCCC3)CC(=O)N(C)[C@@H](COC)C(=O)N[C@@H]([C@@H](C)CC)C(=O)N(C)CC(=O)N(C)[C@H]3C/C=C\CCN(C3=O)[C@@H](Cc3ccc(C(F)(F)F)cc3)C(=O)N(C)CC(=O)N[C@@H](CCc3cc(F)c(C(F)(F)F)c(F)c3)C(=O)N2C1 [PP2606]
NRAS/KRAS (ratio of KD value with respect to GDP-bound NRAS wild-type protein to KD value with respect to KRAS) [1]: AA (a compound having 20 or more is denoted as AA) | HRAS/KRAS (ratio of KD value with respect to GDP-bound HRAS wild-type protein to KD value with respect to KRAS) [2]: AA (a compound having 20 or more is denoted as AA)

CCC(CC)[C@H]1C(=O)N(C)[C@H](C(=O)N2CCCCC2)CC(=O)N(C)[C@@H](COC)C(=O)N[C@@H]([C@@H](C)CC)C(=O)N(C)CC(=O)N(C)[C@H]2C/C=C\CCN(C2=O)[C@@H](Cc2ccc(C(F)(F)F)cc2)C(=O)N(C)CC(=O)N[C@@H](CCc2cc(F)c(C(F)(F)F)c(F)c2)C(=O)N2C[C@H](OC(C)C)C[C@H]2C(=O)NC2(CC(C)(C)C2)C(=O)N1C [PP2608]
NRAS/KRAS (ratio of KD value with respect to GDP-bound NRAS wild-type protein to KD value with respect to KRAS) [1]: AA (a compound having 20 or more is denoted as AA) | HRAS/KRAS (ratio of KD value with respect to GDP-bound HRAS wild-type protein to KD value with respect to KRAS) [2]: A (a compound having 10 or more and less than 20 is denoted as A)

CCO[C@@H]1C[C@H]2C(=O)NC3(CC(C)(C)C3)C(=O)N(C)[C@@H](C(CC)CC)C(=O)N(C)[C@H](C(=O)N3CCCCC3)CC(=O)N(C)[C@@H](COC)C(=O)N[C@@H]([C@@H](C)CC)C(=O)N(C)CC(=O)N(C)[C@H]3C/C=C\CCN(C3=O)[C@@H](Cc3ccc(C(F)(F)F)cc3)C(=O)N(C)CC(=O)N[C@@H](CCc3ccc(Cl)c(Cl)c3)C(=O)N2C1 [PP2610]
NRAS/KRAS (ratio of KD value with respect to GDP-bound NRAS wild-type protein to KD value with respect to KRAS) [1]: AA (a compound having 20 or more is denoted as AA) | HRAS/KRAS (ratio of KD value with respect to GDP-bound HRAS wild-type protein to KD value with respect to KRAS) [2]: A (a compound having 10 or more and less than 20 is denoted as A)

CCC(CC)[C@H]1C(=O)N(C)[C@H](C(=O)N2CCCCC2)CC(=O)N(C)[C@@H](COC)C(=O)N[C@@H]([C@@H](C)CC)C(=O)N(C)CC(=O)N(C)[C@H]2C/C=C\CCN(C2=O)[C@@H](Cc2ccc(C(F)(F)F)cc2)C(=O)N(C)CC(=O)N[C@@H](CCc2ccc(Cl)c(Cl)c2)C(=O)N2C[C@H](OC(C)C)C[C@H]2C(=O)NC2(CC(C)(C)C2)C(=O)N1C [PP2612]
NRAS/KRAS (ratio of KD value with respect to GDP-bound NRAS wild-type protein to KD value with respect to KRAS) [1]: AA (a compound having 20 or more is denoted as AA) | HRAS/KRAS (ratio of KD value with respect to GDP-bound HRAS wild-type protein to KD value with respect to KRAS) [2]: A (a compound having 10 or more and less than 20 is denoted as A)

CCC[C@H]1C(=O)N[C@@H]([C@@H](C)CC)C(=O)N(C2CC2)CC(=O)N(C)[C@H]2C/C=C\CCN(C2=O)[C@@H](Cc2ccc(C)cc2)C(=O)N(C)CC(=O)N[C@@H](CCc2cc(F)c(C(F)(F)F)c(F)c2)C(=O)N2C[C@H](OC3CCC3)C[C@H]2C(=O)NC2(CC(C)(C)C2)C(=O)N(C)[C@@H](C2CCCC2)C(=O)N(C)[C@H](C(=O)N(C)C)CC(=O)N1C [PP2614]
NRAS/KRAS (ratio of KD value with respect to GDP-bound NRAS wild-type protein to KD value with respect to KRAS) [1]: A (a compound having 10 or more and less than 20 is denoted as A) | HRAS/KRAS (ratio of KD value with respect to GDP-bound HRAS wild-type protein to KD value with respect to KRAS) [2]: A (a compound having 10 or more and less than 20 is denoted as A)

CCC(CC)[C@H]1C(=O)N(C)[C@H](C(=O)N(C)C)CC(=O)N(C)[C@@H](COC)C(=O)N[C@@H]([C@@H](C)CC)C(=O)N(C2CC2)CC(=O)N(C)[C@H]2C/C=C\CCN(C2=O)[C@@H](CC2CCC(F)(F)CC2)C(=O)N(C)CC(=O)N[C@@H](CCc2cc(F)c(C(F)(F)F)c(F)c2)C(=O)N2C[C@H](OC3CCC3)C[C@H]2C(=O)NC2(CC(C)(C)C2)C(=O)N1C [PP2615]
NRAS/KRAS (ratio of KD value with respect to GDP-bound NRAS wild-type protein to KD value with respect to KRAS) [1]: A (a compound having 10 or more and less than 20 is denoted as A) | HRAS/KRAS (ratio of KD value with respect to GDP-bound HRAS wild-type protein to KD value with respect to KRAS) [2]: A (a compound having 10 or more and less than 20 is denoted as A)

CCC[C@H]1C(=O)N[C@@H]([C@@H](C)CC)C(=O)N(C2CC2)CC(=O)N(C)[C@H]2C/C=C\CCN(C2=O)[C@@H](Cc2ccc(C)cc2)C(=O)N(C)CC(=O)N[C@@H](CCc2ccc(Cl)c(Cl)c2)C(=O)N2C[C@H](OC3CCC3)C[C@H]2C(=O)NC2(CC(C)(C)C2)C(=O)N(C)[C@@H](C2CCCC2)C(=O)N(C)[C@H](C(=O)N(C)C)CC(=O)N1C [PP2616]
NRAS/KRAS (ratio of KD value with respect to GDP-bound NRAS wild-type protein to KD value with respect to KRAS) [1]: A (a compound having 10 or more and less than 20 is denoted as A) | HRAS/KRAS (ratio of KD value with respect to GDP-bound HRAS wild-type protein to KD value with respect to KRAS) [2]: A (a compound having 10 or more and less than 20 is denoted as A)

CC[C@H](C)[C@@H]1NC(=O)[C@H](COC)N(C)C(=O)C[C@@H](C(=O)N(C)C)N(C)C(=O)[C@H](C2CCCC2)N(C)C(=O)C2(CC(C)(C)C2)NC(=O)[C@@H]2C[C@@H](OC3CCC3)CN2C(=O)[C@H](CCc2cc(F)c(C(F)(F)F)c(F)c2)NC(=O)CN(C)C(=O)[C@H](CC2CCCCC2)N2CC/C=C\C[C@@H](C2=O)N(C)C(=O)CN(C2CC2)C1=O [PP2618]
NRAS/KRAS (ratio of KD value with respect to GDP-bound NRAS wild-type protein to KD value with respect to KRAS) [1]: A (a compound having 10 or more and less than 20 is denoted as A) | HRAS/KRAS (ratio of KD value with respect to GDP-bound HRAS wild-type protein to KD value with respect to KRAS) [2]: A (a compound having 10 or more and less than 20 is denoted as A)

CCC(CC)[C@H]1C(=O)N(C)[C@H](C(=O)N(C)C)CC(=O)N(C)[C@@H](COC)C(=O)N[C@@H]([C@@H](C)CC)C(=O)N(C2CC2)CC(=O)N(C)[C@H]2C/C=C\CCN(C2=O)[C@@H](Cc2ccc(C)cc2)C(=O)N(C)CC(=O)N[C@@H](CCc2cc(F)c(C(F)(F)F)c(F)c2)C(=O)N2C[C@H](OC3CCCC3)C[C@H]2C(=O)NC2(CC(C)(C)C2)C(=O)N1C [PP2619]
NRAS/KRAS (ratio of KD value with respect to GDP-bound NRAS wild-type protein to KD value with respect to KRAS) [1]: AA (a compound having 20 or more is denoted as AA) | HRAS/KRAS (ratio of KD value with respect to GDP-bound HRAS wild-type protein to KD value with respect to KRAS) [2]: A (a compound having 10 or more and less than 20 is denoted as A)

CC[C@H](C)[C@@H]1NC(=O)[C@H](COC)N(C)C(=O)C[C@@H](C(=O)N(C)C)N(C)C(=O)[C@H](C2CCCC2)N(C)C(=O)C2(CC(C)(C)C2)NC(=O)[C@@H]2C[C@@H](OC3CCC3)CN2C(=O)[C@H](CCc2cc(F)c(C(F)(F)F)c(F)c2)NC(=O)CN(C)C(=O)[C@H](CC2CCC(F)(F)CC2)N2CC/C=C\C[C@@H](C2=O)N(C)C(=O)CN(C2CC2)C1=O [PP2622]
NRAS/KRAS (ratio of KD value with respect to GDP-bound NRAS wild-type protein to KD value with respect to KRAS) [1]: A (a compound having 10 or more and less than 20 is denoted as A) | HRAS/KRAS (ratio of KD value with respect to GDP-bound HRAS wild-type protein to KD value with respect to KRAS) [2]: B (a compound having 3 or more and less than 10 is denoted as B)

CC[C@H](C)[C@@H]1NC(=O)[C@H](COC)N(C)C(=O)C[C@@H](C(=O)N(C)C)N(C)C(=O)[C@H](C2CCCC2)N(C)C(=O)C2(CC(C)(C)C2)NC(=O)[C@@H]2C[C@@H](OC3CCC3)CN2C(=O)[C@H](CCc2ccc(Cl)c(Cl)c2)NC(=O)CN(C)C(=O)[C@H](CC2CCC(F)(F)CC2)N2CC/C=C\C[C@@H](C2=O)N(C)C(=O)CN(C2CC2)C1=O [PP2624]
NRAS/KRAS (ratio of KD value with respect to GDP-bound NRAS wild-type protein to KD value with respect to KRAS) [1]: A (a compound having 10 or more and less than 20 is denoted as A) | HRAS/KRAS (ratio of KD value with respect to GDP-bound HRAS wild-type protein to KD value with respect to KRAS) [2]: A (a compound having 10 or more and less than 20 is denoted as A)

CC[C@H](C)[C@@H]1NC(=O)[C@H](COC)N(C)C(=O)C[C@@H](C(=O)N(C)C)N(C)C(=O)[C@H](C2CCCC2)N(C)C(=O)C2(CC(C)(C)C2)NC(=O)[C@@H]2C[C@@H](OC3CCCC3)CN2C(=O)[C@H](CCc2cc(F)c(C(F)(F)F)c(F)c2)NC(=O)CN(C)C(=O)[C@H](Cc2ccc(C)cc2)N2CC/C=C\C[C@@H](C2=O)N(C)C(=O)CN(C2CC2)C1=O [PP2626]
NRAS/KRAS (ratio of KD value with respect to GDP-bound NRAS wild-type protein to KD value with respect to KRAS) [1]: A (a compound having 10 or more and less than 20 is denoted as A) | HRAS/KRAS (ratio of KD value with respect to GDP-bound HRAS wild-type protein to KD value with respect to KRAS) [2]: A (a compound having 10 or more and less than 20 is denoted as A)

CCC(CC)[C@H]1C(=O)N(C)[C@H](C(=O)N(C)C)CC(=O)N(C)[C@@H](COC)C(=O)N[C@@H]([C@@H](C)CC)C(=O)N(C2CC2)CC(=O)N(C)[C@H]2C/C=C\CCN(C2=O)[C@@H](CC2CCC(F)(F)CC2)C(=O)N(C)CC(=O)N[C@@H](CCc2cc(F)c(C(F)(F)F)c(F)c2)C(=O)N2C[C@H](OC3CCCC3)C[C@H]2C(=O)NC2(CC(C)(C)C2)C(=O)N1C [PP2627]
NRAS/KRAS (ratio of KD value with respect to GDP-bound NRAS wild-type protein to KD value with respect to KRAS) [1]: A (a compound having 10 or more and less than 20 is denoted as A) | HRAS/KRAS (ratio of KD value with respect to GDP-bound HRAS wild-type protein to KD value with respect to KRAS) [2]: A (a compound having 10 or more and less than 20 is denoted as A)

CC[C@H](C)[C@@H]1NC(=O)[C@H](COC)N(C)C(=O)C[C@@H](C(=O)N(C)C)N(C)C(=O)[C@H](C2CCCC2)N(C)C(=O)C2(CC(C)(C)C2)NC(=O)[C@@H]2C[C@@H](OC3CCCC3)CN2C(=O)[C@H](CCc2ccc(Cl)c(Cl)c2)NC(=O)CN(C)C(=O)[C@H](Cc2ccc(C)cc2)N2CC/C=C\C[C@@H](C2=O)N(C)C(=O)CN(C2CC2)C1=O [PP2628]
NRAS/KRAS (ratio of KD value with respect to GDP-bound NRAS wild-type protein to KD value with respect to KRAS) [1]: A (a compound having 10 or more and less than 20 is denoted as A) | HRAS/KRAS (ratio of KD value with respect to GDP-bound HRAS wild-type protein to KD value with respect to KRAS) [2]: A (a compound having 10 or more and less than 20 is denoted as A)
